Data reported in a melting point compilation (Tetko et al.).

Row | Compound | melting point
1 | N#Cc1cccc(OCC(F)F)n1 | 49 to 51 °C
2 | Nc1c2c(nn1-c1ccccc1)CCC2 | 180 to 182 °C
3 | O=S(=O)(Cl)c1scc(Br)c1Br | 111 to 113 °C
4 | O=C1CSCc2ccccc21 | 56 to 58 °C
5 | CC(C)n1ncc2c(C(=O)O)cc(-c3ccccc3)nc21 | 198 to 200 °C
6 | O=C(O)c1cc[nH]c(=O)c1 | 299 to 301 °C
7 | NC(=S)Cn1nc2ccccn2c1=O | 204 to 206 °C
8 | N#Cc1cc(C#N)c(S)nc1N | 280 to 282 °C
9 | CCCCc1nc2cc(NC(C)=O)ccc2[nH]1 | 192 to 194 °C
10 | Nc1cccc(CN2CCOCC2)n1 | 129 to 131 °C
11 | N#CCc1ccc(C(=O)O)cc1 | 189 to 191 °C
12 | Sc1nnc(C2CC2)n1Cc1ccccc1 | 176 to 178 °C
13 | Nc1ccc(S(=O)(=O)C2CCCC2)cc1 | 113 to 115 °C
14 | Cc1cccc2c(CC(=O)O)c[nH]c12 | 188 to 190 °C
15 | Nc1ccc(-n2nccn2)nc1 | 82 to 84 °C
16 | CC(=O)c1cc(C)cc(C(C)=O)c1O | 50 to 52 °C
17 | COCc1csc(N)n1 | 109 to 111 °C
18 | Nc1nnc(CCOc2ccccc2)o1 | 142 to 144 °C
19 | Cc1nc(N2CCCCC2)sc1C=O | 113 to 115 °C
20 | O=C1CSC(C(F)(F)F)O1 (stereo unspecified) | 65 to 67 °C
21 | O=S(=O)(Cl)c1ccc(-n2cnnn2)cc1 | 179 to 181 °C
22 | COc1ccc(NC(=O)c2ccc(N)cc2)cc1 | 187 to 189 °C

Row | Compound | melting point
23 | OC(CNCc1ccccc1)c1ccsc1 (stereo unspecified) | 78 to 80 °C
24 | NS(=O)(=O)N1CCc2ccccc21 | 149 to 151 °C
25 | NC(=O)c1cc(-c2csc(N)n2)c[nH]1 | 235 to 237 °C
26 | CC(C)Nc1nnc(S)s1 | 194 to 196 °C
27 | O=C(O)c1cnn(-c2ccccn2)c1C(F)(F)F | 156 to 158 °C
28 | N#Cc1ccccc1OCC(=O)O | 182 to 184 °C
29 | COc1cc(N)c(N)cc1OC | 126 to 128 °C
30 | CC(=O)c1cnc2ccsc2c1 | 132 to 134 °C
31 | Nc1cc(Cl)c(OCC(F)(F)F)c(Cl)c1 | 89 to 91 °C
32 | Fc1ccc(OCc2ccc3ccccc3n2)c(Br)c1 | 124 to 126 °C
33 | O=[N+]([O-])c1cc(F)c(S(=O)(=O)Cl)c(F)c1 | 73 to 75 °C
34 | Cc1n[nH]c(C)c1CCC(=O)O | 169 to 171 °C
35 | Cc1n[nH]c(C)c1S(=O)(=O)N1CCC(=O)CC1 | 191 to 193 °C
36 | CCCn1c(C)nnc1S | 129 to 131 °C
37 | CNCc1cn(-c2ccccc2)nc1-c1ccc(Cl)cc1 | 65 to 67 °C
38 | Nc1nc(-c2c(F)cccc2F)co1 | 139 to 141 °C
39 | CC1(C)CC(C=Cc2ccccn2)=Cc2c1sc(N)c2C#N | 200 to 202 °C
40 | CCOC(=O)c1cc2c(C)cc(C)cc2[nH]1 | 119 to 121 °C
41 | Cc1ccc(NCCc2ccc(Cl)cc2)nn1 | 163 to 165 °C
42 | CCOC(=O)c1c(N)c(C#N)cn1C | 159 to 161 °C
43 | Nc1cc(S(=O)(=O)N2CCCC2)ccc1O | 163 to 165 °C
44 | Nc1ccc(C(=O)Nc2cccnc2)cc1 | 212 to 214 °C

Row | Compound | melting point
45 | CN(C)C=C(C#N)S(C)(=O)=O | 129 to 131 °C
46 | O=Cc1nccn1CC(F)(F)F | 50 to 52 °C
47 | O=C(O)c1ccc(SC(F)F)cc1 | 154 to 156 °C
48 | COc1ccc2c(c1)CCC(=O)N2 | 141 to 143 °C
49 | NS(=O)(=O)c1cccc2c1N=S=N2 | 128 to 130 °C
50 | O=C(Nc1ccccc1)C(Cl)c1ccccc1 (stereo unspecified) | 150 to 152 °C
51 | Cc1ccc(OCc2ccc(C(=O)O)o2)cc1 | 204 to 206 °C
52 | Nc1nc2c(s1)CNCC2 | 176 to 178 °C
53 | Cc1ccc(Cc2cnc(N)s2)cc1 | 142 to 144 °C
54 | O=[N+]([O-])c1ccc(O)c(-n2cnnn2)c1 | 199 to 201 °C
55 | O=[N+]([O-])c1ccc(Cl)cc1I | 62 to 64 °C
56 | CC(C)NC(=O)C(C)Cl (stereo unspecified) | 89 to 91 °C
57 | Cc1oc(N)c(C#N)c1C | 163 to 169 °C
58 | Cc1nc(-c2ccc(O)cc2)cs1 | 210 to 212 °C
59 | Cc1nc(-c2ccccc2)oc1C(=O)O | 244 to 246 °C
60 | O=C(CCl)N1CCCC1=O | 33 to 35 °C
61 | NC(=S)NCc1cccc(C(F)(F)F)c1 | 97 to 99 °C
62 | c1ccc2[nH]c(C3CCCCN3)cc2c1 (stereo unspecified) | 151 to 153 °C
63 | ClCc1ncc(-c2ccccc2)s1 | 39 to 41 °C
64 | Cc1ccc(S(=O)(=O)Nc2cccc(Cl)c2)cc1N | 110 to 112 °C
65 | CN(C)S(=O)(=O)c1ccccc1C(N)=S | 154 to 156 °C
66 | Cc1ccc(-c2noc(CC#N)n2)cc1 | 56 to 58 °C

Row | Compound | melting point
67 | NC1=NNC(=O)C1c1ccccc1 (stereo unspecified) | 249 to 251 °C
68 | Cc1nn(C)c2nc(C(C)C)cc(C(=O)O)c12 | 211 to 213 °C
69 | Cc1cc(N)nn1-c1cccc(Cl)c1 | 58 to 60 °C
70 | O=[N+]([O-])c1cc(Br)cc(S(=O)(=O)Cl)c1 | 47 to 49 °C
71 | CC(C)c1c(C(=O)O)nnn1-c1ccc(F)cc1 | 146 to 148 °C
72 | O=C(O)c1nc2ncc(Br)cn2n1 | 199 to 201 °C
73 | N#Cc1cc(C(=O)O)c(N)[nH]c1=O | 250 to 252 °C
74 | Cc1cc2c(Cl)nccc2o1 | 38 to 40 °C
75 | CSc1nc2nc(C)c(CC(=O)O)c(C)n2n1 | 275 to 277 °C
76 | Sc1nnc(-c2ccc3c(c2)OCO3)o1 | 179 to 181 °C
77 | Brc1cccc(-n2cnnn2)c1 | 90 to 92 °C
78 | Cn1cc(COc2ccc(O)cc2)cn1 | 186 to 188 °C
79 | O=c1ccc(C(F)(F)F)n[nH]1 | 125 to 127 °C
80 | COC(=O)c1sc(N)nc1C | 171 to 174 °C
81 | CCOC(=O)CSc1nnc(-c2ccco2)o1 | 59 to 61 °C
82 | COc1ccc(NC(=O)OCC(F)(F)F)cn1 | 86 to 88 °C
83 | CC(C)=CCOc1cccc(C(=O)O)c1 | 86 to 88 °C
84 | CCOC(=O)c1nc(C)oc1N | 123 to 125 °C
85 | CC1CSc2ccccc2NC1=O (stereo unspecified) | 178 to 180 °C
86 | CC(C)(C)c1ccc(N2CCC(=O)CC2)cc1 | 69 to 71 °C

Results, then the compound that gave them:

Row | melting point | Compound
87 | 199 to 201 °C | Cc1n[nH]cc1C(=O)NN
88 | 226 to 228 °C | O=C(O)c1ccc(NS(=O)(=O)C(F)(F)F)cc1
89 | 47 to 49 °C | CC(C)(C)OC(=O)NCC(N)C1CCCCC1 (stereo unspecified)
90 | 279 to 281 °C | CNc1cnc(Cl)cc1C(=O)O
91 | 114 to 116 °C | Cc1nc(CC(=O)NN)cs1
92 | 47 to 49 °C | CCOC(=O)NCCC(=O)O
93 | 58 to 60 °C | O=C(Nc1cccs1)OCC(F)(F)F
94 | 274 to 276 °C | O=C(O)c1ccc(NC(=O)C2CC2)cc1
95 | 169 to 171 °C | CN(C)C(=O)C1CCC(C(=O)O)CC1 (stereo unspecified)
96 | 118 to 120 °C | O=C(CCl)NCc1ccccc1CS(=O)(=O)N1CCOCC1
97 | 74 to 76 °C | C#CCN1CCC(NC2CCOCC2)CC1
98 | 82 to 84 °C | CC(Cl)C(=O)N(c1nccs1)C1CCCCC1 (stereo unspecified)
99 | 128 to 130 °C | O=C(CCl)/N=c1\sccn1Cc1ccc(Cl)cc1Cl
100 | 162 to 164 °C | CC(=O)c1ccc2c(c1)CCC(=O)N2
101 | 194 to 196 °C | O=C(O)c1cc(S(=O)(=O)N2CCCC2)ccc1Cl
102 | 53 to 55 °C | COCCCC(=O)c1ccc(Br)cc1
103 | 101 to 103 °C | Nc1cc(F)ccc1NC(=O)c1ccccn1
104 | 91 to 93 °C | CCOC(=O)c1ccc(N)c(O)c1
105 | 73 to 75 °C | Cc1csc(CC(=O)NN)n1
106 | 145 to 147 °C | O=C1c2ccccc2S(=O)(=O)N1CCl

Row | melting point | Compound
107 | 152 to 154 °C | Nc1ccc(Cl)cc1C(=O)NCC1CC1
108 | 129 to 131 °C | Cc1cc(Cl)c(S(=O)(=O)Cl)cc1[N+](=O)[O-]
109 | 239 to 241 °C | Cn1nc(Br)c(C(=O)NCC(=O)O)c1N
110 | 122 to 124 °C | Cc1nn(C2CCS(=O)(=O)C2)c(C)c1C=O (stereo unspecified)
111 | 125 to 127 °C | COc1cc(C2(C(=O)O)CCC2)ccc1C
112 | 177 to 179 °C | NC(=O)c1ccc(-c2nc(CCl)cs2)cc1
113 | 127 to 129 °C | CC(=O)N(c1ccc(F)cc1)c1nc(CCl)cs1
114 | 53 to 55 °C | NC1CCN(C(=O)C2CC2)CC1
115 | 91 to 95 °C | COc1ccc(-n2c(C)cc(C(=O)CCl)c2C)cc1
116 | 149 to 151 °C | Cc1nn(-c2ccccc2)c(C)c1NC(=O)CCl
117 | 111 to 113 °C | O=C(O)c1cc(S(=O)(=O)Cl)cc(F)c1F
118 | 53 to 55 °C | CCNC(=O)NCCCO
119 | 202 to 204 °C | Cn1cc(S(N)(=O)=O)cc1C(=O)O
120 | 128 to 130 °C | O=C(CCl)NC(=O)Nc1ccc2c(c1)OCCO2
121 | 154 to 156 °C | CC(C)[C@H](C(=O)O)N(C)C
122 | 297 to 299 °C | O=C(O)c1ccc(CS(=O)(=O)c2ccccc2)cc1
123 | 206 to 208 °C | Cc1c(C(=O)O)[nH]c2c1C(=O)CC(C)(C)C2
124 | 106 to 108 °C | CC(Cl)C(=O)N(C)C1CCS(=O)(=O)C1 (stereo unspecified)
125 | 119 to 121 °C | CCS(=O)(=O)c1ccc(CCC(=O)O)cc1
126 | 58 to 60 °C | COC(=O)c1cc([N+](=O)[O-])cnc1C

Row | melting point | Compound
127 | 179 to 181 °C | CC(C)(C)CC(=O)Nc1ccc(CC(=O)O)cc1
128 | 125 to 127 °C | COC(=O)c1ccccc1-n1ncc(Cl)c(Cl)c1=O
129 | 119 to 121 °C | CC(C)CNC(=O)c1ccc(N)cc1
130 | 172 to 174 °C | O=C(O)CCC(=O)c1ccc2ccccc2c1
131 | 137 to 139 °C | CC(=O)CC(=O)Nc1ccc(Br)cc1
132 | 211 to 213 °C | Cc1nnc(N2CCCC2)c(C(N)=O)c1C
133 | 82 to 84 °C | O=C(O)CCOc1ccc(F)c(Cl)c1
134 | 146 to 148 °C | NC(=O)CCC(NC(=O)CCC1CCCC1)C(=O)O (stereo unspecified)
135 | 59 to 61 °C | CCN(CC)C(=O)c1ccc(S(=O)(=O)Cl)cc1
136 | 153 to 155 °C | Cc1ccc(C(=O)O)c(Cl)c1C
137 | 102 to 104 °C | COc1ccc(CN2CCN(C(=O)CCNC(=O)c3ccc(C(C)(C)C)cc3)CC2)cc1
138 | 249 to 251 °C | CN1CCC(=O)Nc2cc(C(=O)O)ccc21
139 | 134 to 136 °C | O=C(O)C=C(C1CC1)C1CC1
140 | 181 to 190 °C | O=C(CCl)NC1CS(=O)(=O)CC1Cl (stereo unspecified)
141 | 90 to 92 °C | O=C(O)C=C1CCCCC1
142 | 132 to 134 °C | CC(C)(C)OC(=O)NCC1CCC(C(=O)O)CC1 (stereo unspecified)
143 | 127 to 129 °C | O=C(O)CCOc1ccc(Cl)cc1[N+](=O)[O-]
144 | 146 to 148 °C | CC(=O)N1CCN(c2ccc(CO)cc2)CC1
145 | 138 to 140 °C | O=C(O)c1ccc(F)c(S(=O)(=O)Cl)c1
146 | 117 to 119 °C | CS(=O)(=O)C1(C(=O)O)CCCC1
